Broadly, the chromatographic logP is a lipophilicity value derived from retention on a column. As usually defined, the inhibition is the percentage by which the read-out fell short of the control.

Marks after values point to notes of the source that are not given here.

One data set can be described thus: physchem. The class given is physicochemical. In a few lines: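 Reversed-phase HPLC per EEC directive 79/831 Annex V.A8, calibrated with straight-chain alkan-2-ones (C3–C16) of known Log P via linear interpolation of retention times. Lambda-max from UV spectra 200–400 nm at chromatographic peaks.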
A further data set relates to Botrytis cinerea. In words: In vivo preventive test on Botrytis cinerea (grey mould). To be noted: 500 ppm of active ingredient, preventive spray on gherkin or cabbage, evaluated 4 to 5 days after inoculation, 0% = control plants, 100% = no disease, read-out: efficacy. Here is the method: B-2. In Vivo Preventive Test on Botrytis cinerea (Grey Mould [table] The active ingredients were made soluble and homogenized in a mixture of Dimethyl sulfoxide/Acetone/Tween® 80 and then diluted in water to the desired concentration. The young plants of gherkin or cabbage were treated by spraying the active ingredient prepared as described above. Control plants were treated only with an aqueous solution of Acetone/Dimethyl sulfoxide/Tween® 80. After 24 hours, the plants were contaminated by spraying the leaves with an aqueous suspension of Botrytis cinerea spores.

Another data set concerns Sphaerotheca fuliginea. In words: In vivo preventive test on Sphaerotheca fuliginea (powdery mildew on cucurbits). To be noted: Podosphaera fuliginea, 192 h; 500 ppm of active ingredient; preventive spray on gherkin; evaluated 8 days after inoculation; 0% = control plants, 100% = no disease; read-out: efficacy. On the procedure:
B-4. In Vivo Preventive Test on Sphaerotheca fuliginea (Powdery Mildew on Cucurbits [table] The active ingredients were made soluble and homogenized in a mixture of Dimethyl sulfoxide/Acetone/Tween® 80 and then diluted in water to the desired concentration. The young plants of gherkin were treated by spraying the active ingredient prepared as described above. Control plants were treated only with an aqueous solution of Acetone/Dimethyl sulfoxide/Tween® 80. After 24 hours, the plants were contaminated by spraying the leaves with an aqueous suspension of Sphaerotheca fuliginea spores.

The next data set relates to Alternaria alternata. In words: Alternaria alternata in vitro cell test. The class given is cell-based. To be noted: 120 h, 20 ppm of active ingredient, liquid culture with spores, 5 days incubation, spectrometric measurement of mycelium growth, read-out: efficacy (inhibition of fungal growth). On the procedure:
B-6. Alternaria alternata In Vitro Cell Test • Solvent: DMSO • Culture medium: 14.6 g anhydrous D-glucose (VWR), 7.1 g Mycological Peptone (Oxoid), 1.4 g granulated Yeast Extract (Merck), QSP 1 liter • Inoculum: spores suspension Fungicides were solubilized in DMSO and the solution used to prepare the required range of concentrations. […] A spore suspension of A. alternata was prepared and diluted to the desired spore density. Fungicides were evaluated for their ability to inhibit spore germination and mycelium growth in liquid culture assay. The compounds were added in the desired concentration to the culture medium with spores. After 5 days incubation, fungi-toxicity of compounds was determined by spectrometric measurement of mycelium growth. Inhibition of fungal growth was determined by comparing the absorbance values in wells containing the fungicides with the absorbance in control wells without fungicides.

A further data set has as its system Pyricularia oryzae. In words: microbe, parasite or virus in culture. The class given is cell-based. To be noted: 120 h, read-out: efficacy (inhibition of fungal growth).
Data set [1] has as its system Colletotrichum lindemuthianum. In words: Colletotrichum lindemuthianum in vitro cell test. The class given is cell-based. To be noted: 144 h, read-out: efficacy (inhibition of fungal growth). Here is the method: B-8. Colletotrichum lindemuthianum In Vitro Cell Test
• Solvent: DMSO • Culture medium: 14.6 g anhydrous D-glucose (VWR), 7.1 g Mycological Peptone (Oxoid), 1.4 g granulated Yeast Extract (Merck), QSP 1 liter • Inoculum: spores suspension
Fungicides were solubilized in DMSO and the solution used to prepare the required range of concentrations. The final concentration of DMSO used in the assay was ≤1%.
A spore suspension of C. lindemuthianum was prepared and diluted to the desired spore density.
Fungicides were evaluated for their ability to inhibit spores germination and mycelium growth in liquid culture assay. The compounds were added in the desired concentration to the culture medium with spores. After 6 days incubation, fungi-toxicity of compounds was determined by spectrometric measurement of mycelium growth. Inhibition of fungal growth was determined by comparing the absorbance values in wells containing the fungicides with the absorbance in control wells without fungicides.

The compound `Cc1ccc(CCNC(=O)c2cc(Cl)nc(F)c2Oc2cccc(C(F)(F)F)c2)c(C)c1` [Compound I-018, 6-chloro-N-[2-(2,4-dimethylphenyl)ethyl]-2-fluoro-3-[3-(trifluoromethyl)phenoxy]pyridine-4-carboxamide] gave a chromatographic logP in the data set “physchem” of 4.95. For the same compound, the pest or weed control at 500 ppm in the data set on Botrytis cinerea and with Sphaerotheca fuliginea was 90 to 100% each time. In “physchem”, `CCc1ccc(C(F)(F)CNC(=O)c2cc(Cl)ncc2Oc2cccc(C(F)(F)F)c2)c(Cl)c1` [Compound I-034, 2-chloro-N-[2-(2-chloro-4-ethyl-phenyl)-2,2-difluoro-ethyl]-5-[3-(trifluoromethyl)phenoxy]pyridine-4-carboxamide] yielded a chromatographic logP of 4.98. The pest or weed control at 500 ppm in the data set on Botrytis cinerea and in the data set with Sphaerotheca fuliginea was 90 to 100% in each case. In the data set with Alternaria alternata, the inhibition at 20 ppm lay within 80 to 89%. On to `Cc1ccc(CCNC(=O)c2cc(NC3CC3)ncc2Oc2cccc(C(F)(F)F)c2)c(C)c1` [Compound I-050, 2-(cyclopropylamino)-N-[2-(2,4-dimethylphenyl)ethyl]-5-[3-(tri-fluoromethyl)phenoxy]pyridine-4-carboxamide], for which the chromatographic logP in the data set “physchem” came out at 3.77. For the same compound, the pest or weed control at 500 ppm with Botrytis cinerea lay in the range of 90 to 100%. Further, the inhibition at 20 ppm in the data set on Alternaria alternata was 90 to 100%. Compound `Cc1ccc(C(F)(F)CNC(=O)c2c(Oc3cccc(C(F)(F)F)c3)cnc(Cl)c2C)c(C)c1` [Compound I-019, 2-chloro-N-[2-(2,4-dimethylphenyl)-2,2-difluoro-ethyl]-3-methyl-5-[3-(trifluoromethyl)phenoxy]pyridine-4-carboxamide] had a chromatographic logP in “physchem” of 4.64. The pest or weed control at 500 ppm in the data set with Botrytis cinerea and with Sphaerotheca fuliginea was 90 to 100% throughout. In addition, the inhibition at 20 ppm (in the data set on Alternaria alternata; with Pyricularia oryzae; in data set [1]) was 90 to 100% each time. With `Cc1ccc(C(F)(F)CNC(=O)c2c(Oc3cccc(C(F)(F)F)c3)cnc(Cl)c2I)c(C)c1` [Compound I-057, 2-chloro-N-[2-(2,4-dimethylphenyl)-2,2-difluoro-ethyl]-3-iodo-5-[3-(trifluoromethyl)phenoxy]pyridine-4-carboxamide], the chromatographic logP in “physchem” is 4.8. Besides, the pest or weed control at 500 ppm in the data set with Botrytis cinerea and in the data set with Sphaerotheca fuliginea was 90 to 100% each time. Further, in the data set with Alternaria alternata, the inhibition at 20 ppm lay within 90 to 100%. `Cc1ccc(CCNC(=S)c2cc(Cl)ncc2Oc2cccc(C(F)(F)F)c2)c(C)c1` [Compound I-115, 2-chloro-N-[2-(2,4-dimethylphenyl)ethyl]-5-[3-(trifluoromethyl)phenoxy]pyridine-4-carbothioamide]: the chromatographic logP in “physchem” was 5.42. The pest or weed control at 500 ppm with Botrytis cinerea and in the data set with Sphaerotheca fuliginea was 90 to 100% each time.

Regarding `CC(NC(=O)c1cc(Cl)ncc1Oc1cccc(C(F)(F)F)c1)c1cn(C)c2cc(Cl)ccc12` (stereo not shown) [Compound I-021], the LogP in “physchem” was 4.68^[a]. Still for that read-out and setting: then `Cc1ccc(C(F)(F)CNC(=O)c2cc(Cl)ncc2Oc2cccc(Cl)c2)c(C)c1` [Compound I-036], with 4.74^[a]; and `CC(=O)c1cccc(Oc2cnc(Cl)cc2C(=O)NCCc2ccc(C)cc2C)c1` [Compound I-014], with 3.87^[a]; and `C[Si](C)(C)C#Cc1ccc(C(F)(F)CNC(=O)c2cc(Cl)ncc2Oc2cccc(C(F)F)c2)c(Cl)c1` [Compound I-198], with 5.97^[a]. On the same count and under the same terms, then `Cc1cccc(Oc2cnc(C)cc2C(=O)NCC(F)(F)c2ccc(C)cc2Cl)c1` [Compound I-068], with 4.06^[a].

As for `Cc1ccc(C(F)CNC(=O)c2cc(Cl)ncc2Oc2cccc(C(F)(F)F)c2)c(Cl)c1` (racemic) [Compound I-083], the LogP in “physchem” was 4.78^[a].

As for `Cc1ccc(CCNC(=O)c2cc(Cl)ncc2Oc2cnc3c(c2)CCC3)c(C)c1` [Compound I-227], the LogP in the data set “physchem” is 3.35^[a]. On the same count and under the same terms, then `Cc1ccc(CCNC(=O)c2cc(Cl)ncc2Oc2ccc(C)c(Cl)c2)c(C)c1` [Compound I-268], with 5.23^[a]. For `N#Cc1nc(Cl)cc(C(=O)NCC(F)(F)c2ccc(Cl)cc2)c1Oc1cccc(C(F)(F)F)c1` [Compound I-221], in “physchem”, the LogP was 4.39^[a].

On to `CSc1c(Cl)ncc(Oc2cccc(C(F)(F)F)c2)c1C(=O)NCC(F)(F)c1ccc(C)cc1C` [Compound I-174], for which, in the data set “physchem”, the LogP is 4.85^[a]. On to `Cc1ccc(CCNC(=O)c2cc(-c3cn[nH]c3)ncc2Oc2cccc(C(F)(F)F)c2)c(C)c1` [Compound I-206], for which the LogP in “physchem” is 3.63^[a]. On to `Cc1cc(Br)ccc1C(F)CNC(=O)c1cc(Cl)ncc1Oc1cccc(C(F)(F)F)c1` (racemic) [Compound I-086], for which the LogP in “physchem” was 4.93^[a]. The same measure, in the same setting: then `Cc1ccc(CCNC(=O)c2cc(Cl)ncc2Oc2ccc(C(F)(F)F)cc2)c(C)c1` [Compound I-240], with 4.77^[a]; and `Cc1ccc(CCNC(=O)c2cc(Cl)ncc2Oc2cccc(S(C)(=O)=O)c2)c(C)c1` [Compound I-261], with 3.38^[a]. Take `O=C(NCC(F)c1ccc(C2CC2)cc1Cl)c1cc(Cl)ncc1Oc1cccc(C(F)(F)F)c1` (racemic) [Compound I-085]: the LogP in “physchem” is 5.08^[a]. Still for that read-out and setting: then `Cc1ccc(CCNC(=O)c2cc(C)ncc2Oc2cccc(Cl)c2)c(C)c1` [Compound I-234], with 3.96^[a].

For `C#Cc1ccc(C(F)(F)CNC(=O)c2cc(Cl)ncc2Oc2cccc(C(F)F)c2)c(Cl)c1` [Compound I-143], the LogP in the data set “physchem” was 4.32^[a]. Same read-out and setting: the result for `O=C(NCCn1cc(Cl)cn1)c1cc(Cl)ncc1Oc1cccc(C(F)(F)F)c1` [Compound I-098] reads 3.40^[a]; that for `Cc1ccc(C(F)(F)CNC(=O)c2cc(C)ncc2Oc2cccc(Cl)c2)c(Cl)c1` [Compound I-067], 4.06^[a].

For the compound `Cc1ccc(C(F)(F)CNC(=O)c2cc(Cl)ncc2Oc2cccc(C3CC3)c2F)c(C)c1` [Compound I-061], the LogP in the data set “physchem” is 5.11^[a]. The same measure, in the same setting: then `CCc1cc(Oc2cnc(Cl)cc2C(=O)NCCc2ccc(C)cc2C)c(C(=O)OC)s1` [Compound I-162], with 4.51^[a]; and `O=C(NCC(F)c1ccc(Cl)cc1Cl)c1cc(Cl)ncc1Oc1cccc(C(F)F)c1` (racemic) [Compound I-037], with 4.40^[a]; and `Cc1ccc(CCNC(=O)c2cc(Cl)ncc2Oc2cccc(OC(F)(F)F)c2F)c(C)c1` [Compound I-229], with 4.95^[a].

Consider `CC(=O)c1cc(C(=O)NCCc2ccc(C)cc2C)c(Oc2cccc(C(F)(F)F)c2)cn1` [Compound I-087, 2-acetyl-N-[2-(2,4-dimethylphenyl)ethyl]-5-[3-(trifluoromethyl)phenoxy]pyridine-4-carboxamide], for which the chromatographic logP in the data set “physchem” was found to be 4.47. Besides, the pest or weed control at 500 ppm lay within 90 to 100% in the data set on Botrytis cinerea and 80 to 89% in the data set with Sphaerotheca fuliginea. Besides, the inhibition at 20 ppm in the data set with Alternaria alternata fell in the range of 90 to 100%; in the data set on Pyricularia oryzae it was 80 to 89%; in data set [1] it was 80 to 89%.

The values are drawn from patent publication US12552748B2, “Pyridine (thio)amides as fungicidal compounds” (Bayer Aktiengesellschaft, priority 2020, dated 2026).
